Where two headings read alike, the source gives them in different places.
How the values were obtained:
DENV-2/16681/eGFP = experiment: microbe, parasite or virus in culture; assay type: cell-based; settings: Dengue virus, DENV2, Vero
DENV-1 G3 Malaysia = assay type: cell-based; settings: T108I in NS4B
DENV-2 RL strain = experiment: Survival study, lethal DENV challenge with 4G2 antibody; assay type: in vivo, AG129 mice

COc1cc(N[C@H](C(=O)c2c[nH]c3ccc(OC(F)(F)F)cc23)c2ccc(Cl)cc2OC)cc(S(C)(=O)=O)c1 [JNJ-1802]
4.8 ± 1.4 nM: EC90 (DENV-2/16681/eGFP; Vero with 50% HS, read-out: EC90, protein-binding-adjusted)
90%: % Survival (DENV-2 RL strain; 802R_0.3, BID, d p.i. 17) | % Survival (DENV-2 RL strain; 802R_0.3, BID, d p.i. 18) | % Survival (DENV-2 RL strain; 802R_0.3, BID, d p.i. 19) | % Survival (DENV-2 RL strain; 802R_0.3, BID, d p.i. 20) | % Survival (DENV-2 RL strain; 802R_0.3, BID, d p.i. 21) | % Survival (DENV-2 RL strain; 802R_0.3, BID, d p.i. 22) | % Survival (DENV-2 RL strain; 802R_0.3, BID, d p.i. 23) | % Survival (DENV-2 RL strain; 802R_0.3, BID, d p.i. 24) | % Survival (DENV-2 RL strain; 802R_0.3, BID, d p.i. 25 = end of study)
≥ 80%: survival (DENV-2 RL strain; 0.6–20 mg per kg per day, b.i.d., vehicle 0%)
1.4 nM: EC50 (DENV-2/16681/eGFP; Vero with 50% HS, read-out: EC50, protein-binding-adjusted)
100%: % Survival (DENV-2 RL strain; 802R_0.3, BID, d p.i. 0) | % Survival (DENV-2 RL strain; 802R_0.3, BID, d p.i. 1) | % Survival (DENV-2 RL strain; 802R_0.3, BID, d p.i. 4) | % Survival (DENV-2 RL strain; 802R_0.3, BID, d p.i. 5) | % Survival (DENV-2 RL strain; 802R_0.3, BID, d p.i. 6) | % Survival (DENV-2 RL strain; 802R_0.3, BID, d p.i. 7) | % Survival (DENV-2 RL strain; 802R_0.3, BID, d p.i. 8) | % Survival (DENV-2 RL strain; 802R_0.3, BID, d p.i. 9) | % Survival (DENV-2 RL strain; 802R_0.3, BID, d p.i. 10) | % Survival (DENV-2 RL strain; 802R_0.3, BID, d p.i. 11) | % Survival (DENV-2 RL strain; 802R_0.3, BID, d p.i. 12) | % Survival (DENV-2 RL strain; 802R_0.3, BID, d p.i. 13) | % Survival (DENV-2 RL strain; 802R_0.3, BID, d p.i. 14) | % Survival (DENV-2 RL strain; 802R_0.3, BID, d p.i. 15) | % Survival (DENV-2 RL strain; 802R_0.3, BID, d p.i. 16) | % Survival (DENV-2 RL strain; 802R_1, BID, d p.i. 0) | % Survival (DENV-2 RL strain; 802R_1, BID, d p.i. 1) | % Survival (DENV-2 RL strain; 802R_1, BID, d p.i. 2) | % Survival (DENV-2 RL strain; 802R_1, BID, d p.i. 4) | % Survival (DENV-2 RL strain; 802R_1, BID, d p.i. 5) | % Survival (DENV-2 RL strain; 802R_1, BID, d p.i. 6) | % Survival (DENV-2 RL strain; 802R_1, BID, d p.i. 7) | % Survival (DENV-2 RL strain; 802R_1, BID, d p.i. 8) | % Survival (DENV-2 RL strain; 802R_1, BID, d p.i. 9) | % Survival (DENV-2 RL strain; 802R_1, BID, d p.i. 10) | % Survival (DENV-2 RL strain; 802R_1, BID, d p.i. 11) | % Survival (DENV-2 RL strain; 802R_1, BID, d p.i. 12) | % Survival (DENV-2 RL strain; 802R_1, BID, d p.i. 13) | % Survival (DENV-2 RL strain; 802R_1, BID, d p.i. 14) | % Survival (DENV-2 RL strain; 802R_1, BID, d p.i. 15) | % Survival (DENV-2 RL strain; 802R_1, BID, d p.i. 16) | % Survival (DENV-2 RL strain; 802R_1, BID, d p.i. 17) | % Survival (DENV-2 RL strain; 802R_1, BID, d p.i. 18) | % Survival (DENV-2 RL strain; 802R_1, BID, d p.i. 19) | % Survival (DENV-2 RL strain; 802R_1, BID, d p.i. 20) | % Survival (DENV-2 RL strain; 802R_1, BID, d p.i. 21) | % Survival (DENV-2 RL strain; 802R_1, BID, d p.i. 22) | % Survival (DENV-2 RL strain; 802R_1, BID, d p.i. 23) | % Survival (DENV-2 RL strain; 802R_1, BID, d p.i. 24)
3.04 ± 0.69 nM: EC90 (DENV-1 G3 Malaysia)
0.161 ± 0.083 nM: EC90 (DENV-2/16681/eGFP; Vero, read-out: EC90)
0.059 ± 0.03 nM: EC50 (DENV-2/16681/eGFP; Vero, mean ± s.d., read-out: EC50)
0.059 to 1.24 nM: EC50 (DENV-2/16681/eGFP; two DENV-2 laboratory strains in Vero, Huh-7, C6/36, THP-1/DC-SIGN, read-out: mean EC50, range)

— publication PMC10033419, “Blocking NS3–NS4B interaction inhibits dengue virus in non-human primates” (Nature, 2023)
